Where “and” joins values, the source holds several entries; their conditions need not be identical. Equal entries are not always repeated.
Experiments:
[1] = system: 1,5-AG; experiment: Level of 1,5-AG in subjects having GSD Ib after Jardiance treatment; format: in vivo, human; conditions: reference range in normal adults 10.7-32.0, in µg/mL (unit assumed)
Protocol: The level of 1,5-AG was determined in 6 subjects having GSD Ib. Here, the reference range of 1,5-AG in normal, non-GSD Ib adults is 10.7-32.0.

[2] = cited from earlier work

| Structure (SMILES) | Level of 1,5-AG After Jardiance Treatment ([1]; first value after treatment) | Level of 1,5-AG After Jardiance Treatment ([1]; later value ('then')) | half-life in blood ([2]; blood) | excreted amount in urine reabsorbed by the kidneys ([2]; reabsorption at sodium glucose active cotransporter (SGLT4)) |
| --- | --- | --- | --- | --- |
| OC[C@H]1O[C@@H](c2ccc(Cl)c(Cc3ccc(O[C@H]4CCOC4)cc3)c2)[C@H](O)[C@@H](O)[C@@H]1O [Jardiance] | 20.7 and 33.1 | 7.8 | – | – |
| OC[C@H]1OC[C@H](O)[C@@H](O)[C@@H]1O [1,5-AG, 1,5-anhydroglucitol] | – | – | 1-2 weeks | About 99.9% |
